Our source for the Ki values is ChEMBL document CHEMBL4033724, “Novel sulfonamide-containing 2-indolinones that selectively inhibit tumor-associated alpha carbonic anhydrases” (Bioorg Med Chem, 2017).

In one assay the target is Carbonic anhydrase 1 (Homo sapiens, UniProt P00915). As to the kind of experiment: Inhibition of recombinant human cytosolic carbonic anhydrase 1 expressed in Escherichia coli pretreated for 15 mins prior to testing by stopped-flow assay.
The next assay deals with Carbonic anhydrase 9 (Homo sapiens, UniProt Q16790). As to the kind of experiment: Inhibition of recombinant human membrane bound carbonic anhydrase 9 expressed in Escherichia coli pretreated for 15 mins prior to testing by stopped-flow assay.
In the next assay the target is Carbonic anhydrase 2 (Homo sapiens, UniProt P00918). The assay can be described thus: Inhibition of recombinant human cytosolic carbonic anhydrase 2 expressed in Escherichia coli pretreated for 15 mins prior to testing by stopped-flow assay.
The next assay concerns the target Carbonic anhydrase 12 (Homo sapiens, UniProt O43570). As to the kind of experiment: Inhibition of recombinant human […] expressed in Escherichia coli pretreated for 15 mins prior to testing by stopped-flow assay.

Carbonic anhydrase 12, sequence (O43570 whole entry): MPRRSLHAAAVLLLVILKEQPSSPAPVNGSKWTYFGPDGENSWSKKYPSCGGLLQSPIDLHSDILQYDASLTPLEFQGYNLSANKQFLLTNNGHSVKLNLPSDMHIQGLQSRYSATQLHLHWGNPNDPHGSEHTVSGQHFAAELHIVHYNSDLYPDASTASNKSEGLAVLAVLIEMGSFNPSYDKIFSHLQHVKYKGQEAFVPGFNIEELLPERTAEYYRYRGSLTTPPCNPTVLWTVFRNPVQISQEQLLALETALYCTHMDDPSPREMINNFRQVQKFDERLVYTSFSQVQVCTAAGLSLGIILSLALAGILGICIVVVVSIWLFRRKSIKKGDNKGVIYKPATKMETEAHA
Carbonic anhydrase 1, sequence (P00915 whole entry): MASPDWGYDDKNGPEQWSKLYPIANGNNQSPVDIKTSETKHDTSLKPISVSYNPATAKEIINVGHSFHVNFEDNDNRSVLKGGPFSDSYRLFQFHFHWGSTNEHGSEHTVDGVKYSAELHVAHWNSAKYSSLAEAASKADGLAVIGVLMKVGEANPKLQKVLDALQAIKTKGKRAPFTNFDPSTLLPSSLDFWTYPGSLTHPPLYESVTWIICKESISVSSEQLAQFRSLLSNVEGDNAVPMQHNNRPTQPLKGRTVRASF

Turning to `Cc1ccc2c(c1)/C(=N/NC(=S)Nc1ccc(S(N)(=O)=O)cc1)C(=O)N2`, the Ki on Carbonic anhydrase 1 was 0.744 µM; at Carbonic anhydrase 9 it was 0.0623 µM; on Carbonic anhydrase 2 it was 0.735 µM; on Carbonic anhydrase 12 it was 0.0057 µM.

Turning to `NS(=O)(=O)c1ccc(NC(=S)N/N=C2\C(=O)Nc3c(F)cccc32)cc1`, the Ki came to 0.0576 µM on Carbonic anhydrase 1, 0.0208 µM on Carbonic anhydrase 9, 0.0269 µM at Carbonic anhydrase 2 and 0.0455 µM at Carbonic anhydrase 12.

Take `NS(=O)(=O)c1ccc(NC(=S)N/N=C2\C(=O)Nc3ccc(I)cc32)cc1`: the Ki on Carbonic anhydrase 1 came to 0.624 µM; at Carbonic anhydrase 9, 0.0168 µM; at Carbonic anhydrase 2 it was 0.399 µM; at Carbonic anhydrase 12, 0.0059 µM.

Turning to `NS(=O)(=O)c1ccc(NC(=S)N/N=C2\C(=O)Nc3ccc(Br)cc32)cc1`, the Ki was found to be 0.882 µM at Carbonic anhydrase 1, 0.0648 µM on Carbonic anhydrase 9, 0.851 µM on Carbonic anhydrase 2 and 0.0061 µM at Carbonic anhydrase 12.

`NS(=O)(=O)c1ccc(NC(=S)N/N=C2\C(=O)Nc3ccc([N+](=O)[O-])cc32)cc1`: the Ki at Carbonic anhydrase 1 was 0.0688 µM; at Carbonic anhydrase 9, 0.0195 µM; on Carbonic anhydrase 2 it was 0.032 µM; at Carbonic anhydrase 12 it was 0.0041 µM.

On to `NS(=O)(=O)c1ccc(NC(=S)N/N=C2\C(=O)Nc3ccc(OC(F)(F)F)cc32)cc1`, for which the Ki at Carbonic anhydrase 1 came out at 0.481 µM; on Carbonic anhydrase 9 it was 0.0457 µM; on Carbonic anhydrase 2, 0.42 µM; on Carbonic anhydrase 12, 0.006 µM.

As to `NS(=O)(=O)c1ccc(NC(=S)N/N=C2\C(=O)Nc3c(Cl)cccc32)cc1`, the Ki at Carbonic anhydrase 1 came out at 0.0761 µM; at Carbonic anhydrase 9, 0.0133 µM; on Carbonic anhydrase 2, 0.426 µM; on Carbonic anhydrase 12 it was 0.0873 µM.

Turning to `NS(=O)(=O)c1ccc(NC(=S)N/N=C2\C(=O)Nc3c(Br)cc(Br)cc32)cc1`, the Ki came out at 0.698 µM at Carbonic anhydrase 1, 0.0581 µM on Carbonic anhydrase 9, 0.687 µM at Carbonic anhydrase 2 and 0.0063 µM at Carbonic anhydrase 12.

For the compound `NS(=O)(=O)c1ccc(NC(=S)N/N=C2\C(=O)Nc3ccc(S(=O)(=O)O)cc32)cc1`, the Ki at Carbonic anhydrase 1 was 0.901 µM; at Carbonic anhydrase 9, 0.0344 µM; on Carbonic anhydrase 2, 0.897 µM; on Carbonic anhydrase 12 it was 0.0012 µM.

On to `NS(=O)(=O)c1ccc(NC(=S)N/N=C2\C(=O)Nc3c(Cl)cc(Cl)cc32)cc1`, for which the Ki is 0.554 µM on Carbonic anhydrase 1, 0.0213 µM at Carbonic anhydrase 9, 0.782 µM at Carbonic anhydrase 2 and 0.0823 µM at Carbonic anhydrase 12.

As to `NS(=O)(=O)c1ccc(NC(=S)N/N=C2\C(=O)Nc3ccc(Cl)cc32)cc1`, the Ki on Carbonic anhydrase 1 stood at 0.65 µM; on Carbonic anhydrase 9, 0.0542 µM; on Carbonic anhydrase 2, 0.616 µM; at Carbonic anhydrase 12, 0.0058 µM.

In the case of `NS(=O)(=O)c1ccc(NC(=S)N/N=C2\C(=O)Nc3ccc(F)cc32)cc1`, the Ki at Carbonic anhydrase 1 was 0.558 µM; on Carbonic anhydrase 9, 0.0388 µM; on Carbonic anhydrase 2, 0.551 µM; on Carbonic anhydrase 12, 0.0045 µM.

`NS(=O)(=O)c1ccc(NC(=S)N/N=C2\C(=O)Nc3ccccc32)cc1`: the Ki at Carbonic anhydrase 1 was 1.19 µM; at Carbonic anhydrase 9, 0.0663 µM; at Carbonic anhydrase 2, 0.936 µM; on Carbonic anhydrase 12, 0.0069 µM.

One may read the Ki as the equilibrium dissociation constant of an inhibitor or competing ligand from its target.
